In this assay the test system is ISO-induced cardiac injured mice. The assay is described as follows: Echocardiography in isoproterenol (ISO)-induced heart failure model. Particulars: co-treatment of MAZ-51 with FANCs in ISO-treated mice, vs ISO+FANC group. The class given is in vivo, mouse. How it is done:
Male 7-weeks-old C57BL/6 mice were purchased from BioLasco Inc. (Yilan, Taiwan), The mice were treated with FANCs (20 μM; about 0.57 mg/kg body weight) via an abdominal implant using osmotic pump system on Day 0. Then, the mice were subcutaneously treated with ISO (150 mg/kg) on Day 14. After 14 days from ISO injection, echocardiography was performed on Day 28 to measure the cardiac function of the mice. The animals were then sacrificed, and their hearts were harvested for histological and pathological examination.
The experimental echocardiography for the mice was conducted after the mice were anesthetized with isoflurane (Abbott Laboratories Ltd., England; delivered to achieve a concentration of 1-2% in a combination of oxygen and nitrous oxide mixed at a ratio of 50:50 with air). […] Parameters including tissue Doppler used to determine contractile velocity (TDI-S′), deformation-based circumferential systolic strain measure, and quantitative indices of tissue structure integrated backscatter intensity from dynamic myocardial motions, were used to assess systolic myocardial performance using ECG-gated off-line analysis on the EchoPac Workstation.

Take `CN(C)c1ccc(/C=C2/C(=O)Nc3ccccc32)c2ccccc12` [MAZ-51, (3E)-3-[[4-(dimethylamino)naphthalen-1-yl]methylidene]-JH-inden-2-one]: the “effect on FANCs improved cardiac function” value is reported as “abolished”.
